Results: article doi:10.1101/2024.08.19.608619, “Discovery of potent SARS-CoV-2 nsp3 macrodomain inhibitors uncovers lack of translation to cellular antiviral response” (bioRxiv, 2024)
Read-outs that look alike come from different tables or passages of the source.

How the values were obtained:
beta2 (h) = molecular target: T1, beta2 (h) (Homo sapiens, UniProt P07550); assay: In vitro CEREP profiling, beta2 (h) (antagonist radioligand); type: binding; conditions: test compound 10 uM; for inhibition at 10 µM: read-out: perc_inhibition (% inhibition of the binding of a ligand specific for each target)
T1 construct: purchased Eurofins Cerep (SafetyScreen44), recognised from the panel format
T1 sequence (P07550 whole entry): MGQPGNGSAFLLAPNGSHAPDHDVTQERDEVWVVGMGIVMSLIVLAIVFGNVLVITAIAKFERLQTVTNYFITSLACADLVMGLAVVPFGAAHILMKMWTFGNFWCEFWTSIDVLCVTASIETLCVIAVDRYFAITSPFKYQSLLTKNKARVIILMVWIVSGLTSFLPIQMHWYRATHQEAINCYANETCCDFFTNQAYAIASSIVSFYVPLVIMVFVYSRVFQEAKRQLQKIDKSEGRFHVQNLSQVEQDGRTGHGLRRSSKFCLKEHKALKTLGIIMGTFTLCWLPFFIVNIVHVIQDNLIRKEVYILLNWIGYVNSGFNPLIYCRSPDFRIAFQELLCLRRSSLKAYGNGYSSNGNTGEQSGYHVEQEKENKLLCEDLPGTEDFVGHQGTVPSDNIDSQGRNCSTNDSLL
Source text: (§1) Supplement media-1.zip/Safety_Panel_Profile.csv, table | column: perc_inhibition

D2S (h) = molecular target: T2, D2S (h) (Homo sapiens, UniProt P14416); assay: In vitro CEREP profiling, D2S (h) (agonist radioligand); type: binding; conditions: test compound 10 uM; for inhibition at 10 µM: read-out: perc_inhibition (% inhibition of the binding of a ligand specific for each target)
T2 construct: purchased Eurofins Cerep (SafetyScreen44), recognised from the panel format
T2 sequence (P14416 1-414 isoform P14416-2): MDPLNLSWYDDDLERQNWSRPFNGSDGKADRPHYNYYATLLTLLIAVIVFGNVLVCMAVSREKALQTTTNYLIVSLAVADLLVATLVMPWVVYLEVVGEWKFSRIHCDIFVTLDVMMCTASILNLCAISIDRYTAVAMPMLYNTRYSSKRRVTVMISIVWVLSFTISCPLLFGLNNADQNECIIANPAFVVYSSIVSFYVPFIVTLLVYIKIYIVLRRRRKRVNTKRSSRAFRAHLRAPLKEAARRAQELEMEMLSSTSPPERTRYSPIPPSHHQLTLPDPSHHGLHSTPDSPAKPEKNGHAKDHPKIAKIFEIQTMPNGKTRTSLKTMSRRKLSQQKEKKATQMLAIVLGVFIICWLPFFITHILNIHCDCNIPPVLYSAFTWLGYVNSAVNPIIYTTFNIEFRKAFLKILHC
Source text: as §1

ASK1(h) = molecular target: T3, ASK1(h) (Homo sapiens, UniProt Q99683); assay: biochemical; set-up: In vitro kinase panel profiling, per cent remaining kinase activity at 10 uM; conditions: atp_concentration=200, read-out: % of control remaining
T3 construct: gene MAP3K5
T3 sequence (Q99683 1-1374): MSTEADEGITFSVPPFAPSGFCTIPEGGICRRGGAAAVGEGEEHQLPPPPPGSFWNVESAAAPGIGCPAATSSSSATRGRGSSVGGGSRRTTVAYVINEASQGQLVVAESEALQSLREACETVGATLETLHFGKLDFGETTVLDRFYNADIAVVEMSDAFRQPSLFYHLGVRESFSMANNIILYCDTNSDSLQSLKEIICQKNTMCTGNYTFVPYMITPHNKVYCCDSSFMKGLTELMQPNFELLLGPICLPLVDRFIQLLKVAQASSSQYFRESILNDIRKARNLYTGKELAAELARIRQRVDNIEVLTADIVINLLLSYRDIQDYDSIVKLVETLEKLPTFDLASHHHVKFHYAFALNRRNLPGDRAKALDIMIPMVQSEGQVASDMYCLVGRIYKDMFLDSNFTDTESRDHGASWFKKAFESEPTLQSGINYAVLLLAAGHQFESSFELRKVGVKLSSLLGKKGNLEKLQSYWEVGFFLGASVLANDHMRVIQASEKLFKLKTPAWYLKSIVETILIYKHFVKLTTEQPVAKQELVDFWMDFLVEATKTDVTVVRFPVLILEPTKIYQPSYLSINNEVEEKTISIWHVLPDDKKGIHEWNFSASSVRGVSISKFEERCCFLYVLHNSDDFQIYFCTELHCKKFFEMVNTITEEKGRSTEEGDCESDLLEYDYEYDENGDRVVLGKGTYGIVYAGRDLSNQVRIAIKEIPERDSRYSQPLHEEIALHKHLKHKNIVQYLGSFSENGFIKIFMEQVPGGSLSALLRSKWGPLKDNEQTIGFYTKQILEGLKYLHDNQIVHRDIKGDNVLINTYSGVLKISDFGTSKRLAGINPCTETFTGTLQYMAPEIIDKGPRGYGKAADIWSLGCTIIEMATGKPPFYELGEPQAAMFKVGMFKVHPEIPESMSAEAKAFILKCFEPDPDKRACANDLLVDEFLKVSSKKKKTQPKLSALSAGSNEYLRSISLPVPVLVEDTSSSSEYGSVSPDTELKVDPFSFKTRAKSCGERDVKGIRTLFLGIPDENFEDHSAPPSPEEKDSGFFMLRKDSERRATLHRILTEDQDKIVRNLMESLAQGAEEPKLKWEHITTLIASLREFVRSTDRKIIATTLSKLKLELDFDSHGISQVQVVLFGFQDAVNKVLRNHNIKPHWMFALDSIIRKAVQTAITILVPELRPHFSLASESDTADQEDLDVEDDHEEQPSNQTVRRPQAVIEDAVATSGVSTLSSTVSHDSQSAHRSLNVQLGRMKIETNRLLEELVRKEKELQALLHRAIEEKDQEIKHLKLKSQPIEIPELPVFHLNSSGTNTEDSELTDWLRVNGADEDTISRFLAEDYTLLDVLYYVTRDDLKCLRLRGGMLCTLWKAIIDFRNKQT
Source text: (§2) We derisk potential for off-target activity by profiling the compound in a CEREP panel, a standard secondary pharmacology assessment, as well as a kinase panel to derisk a potential hinge-binding motif in our leads, and a PARP panel to derisk activity against human […]. Reassuringly, the compounds are selective, with the only off-targets being moderate human CHRM2 and KOR receptors activity associated with ASAP-0011198.

DRAK1(h) = molecular target: T4, DRAK1(h) (Homo sapiens, UniProt Q9UEE5); assay: biochemical; set-up: In vitro kinase panel profiling, per cent remaining kinase activity at 10 uM; conditions: atp_concentration=10, read-out: % of control remaining
T4 construct: gene STK17A
T4 sequence (Q9UEE5 1-414): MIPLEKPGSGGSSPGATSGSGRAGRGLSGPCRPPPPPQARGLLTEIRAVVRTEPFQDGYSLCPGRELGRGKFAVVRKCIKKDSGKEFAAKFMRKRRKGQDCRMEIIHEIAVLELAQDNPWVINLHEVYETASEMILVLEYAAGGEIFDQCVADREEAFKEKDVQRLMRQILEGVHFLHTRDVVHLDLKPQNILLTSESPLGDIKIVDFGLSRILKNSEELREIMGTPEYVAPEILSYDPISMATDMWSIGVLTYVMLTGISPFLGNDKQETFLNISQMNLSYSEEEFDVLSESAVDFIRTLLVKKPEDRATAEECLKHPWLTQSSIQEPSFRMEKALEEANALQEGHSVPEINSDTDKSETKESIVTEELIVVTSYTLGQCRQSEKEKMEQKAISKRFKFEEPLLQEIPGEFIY
Source text: as §2

[1] = In vitro rat SD liver microsomal stability; type: in vitro ADME
Source text: Supplement media-1.zip/Hepatic_Microsomal_Stability.csv, table | column: clint; t_half

5-HT3 (h) = molecular target: T5, 5-HT3 (h) (Homo sapiens, UniProt P46098); assay: In vitro CEREP profiling, 5-HT3 (h) (antagonist radioligand); type: binding; conditions: test compound concentration 10 uM; for inhibition at 10 µM: read-out: perc_inhibition, % inhibition of the binding of a ligand specific for each target
T5 construct: purchased Eurofins Cerep (SafetyScreen44), recognised from the panel format
T5 sequence (P46098 24-478): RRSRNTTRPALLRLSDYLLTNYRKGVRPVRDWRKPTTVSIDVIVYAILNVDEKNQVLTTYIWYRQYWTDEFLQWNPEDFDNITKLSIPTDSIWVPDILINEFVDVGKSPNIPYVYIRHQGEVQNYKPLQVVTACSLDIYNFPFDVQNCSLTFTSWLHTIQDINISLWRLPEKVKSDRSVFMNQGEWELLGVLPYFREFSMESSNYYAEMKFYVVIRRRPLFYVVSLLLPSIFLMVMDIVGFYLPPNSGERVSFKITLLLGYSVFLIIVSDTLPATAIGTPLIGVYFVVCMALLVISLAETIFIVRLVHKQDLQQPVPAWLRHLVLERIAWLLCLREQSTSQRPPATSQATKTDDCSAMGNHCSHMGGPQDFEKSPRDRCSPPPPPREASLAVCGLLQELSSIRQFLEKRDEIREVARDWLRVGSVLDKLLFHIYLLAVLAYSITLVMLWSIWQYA
Source text: as §1

SMILES	perc_inhibition (% inhibition of the binding of a ligand specific for each target) (beta2 (h))	perc_inhibition (% inhibition of the binding of a ligand specific for each target) (D2S (h))	clint [1]	t_half [1]	perc_inhibition (% inhibition of the binding of a ligand specific for each target) (5-HT3 (h))	also measured
CC(C)[C@H](Nc1ncnc2[nH]ccc12)c1ccc2c(c1)S(=O)(=O)CCC2 [ASAP-0008674]	-1%	-14%	155.0 µL/min/mg	4.49 min	8%	remaining activity at 10 µM (ASK1(h); batch_name=ASAP-0008674-002): 105%; remaining activity at 10 µM (DRAK1(h); batch_name=ASAP-0008674-002): 117%
Cc1nn(C)cc1-c1cc2c(NC(c3ccc4c(c3)S(=O)(=O)CCC4)C(C)C)ncnc2[nH]1 (stereo not shown) [ASAP-0011446]	–	–	–	–	–	inhibition at 10 µM (beta2 (h)): -7%; inhibition at 10 µM (D2S (h)): -16%; remaining activity at 10 µM (ASK1(h); batch_name=ASAP-0011446-002): 103%; remaining activity at 10 µM (DRAK1(h); batch_name=ASAP-0011446-002): 111%; inhibition at 10 µM (5-HT3 (h)): 6%
CC(C)[C@@H](Nc1ncnc2[nH]c(-c3cnn(C)c3C#N)cc12)c1ccc2c(n1)OCCO2 [ASAP-0008418]	–	–	–	–	–	remaining activity at 10 µM (DRAK1(h); batch_name=ASAP-0008418-001): 101%
CC(C)C(Nc1ncnc2[nH]ccc12)c1ccc2c(c1)S(=O)(=O)CCC2 (stereo not shown) [ASAP-0008327]	–	–	–	–	–	remaining activity at 10 µM (ASK1(h); batch_name=ASAP-0008327-001): 108%; remaining activity at 10 µM (DRAK1(h); batch_name=ASAP-0008327-001): 96%
CC(C)[C@H](Nc1ncnc2[nH]c(-c3cnn(C)c3C#N)cc12)c1ccc2c(n1)OCCO2 [ASAP-0010715]	3%	-7%	106.0 µL/min/mg	6.54 min	6%	remaining activity at 10 µM (ASK1(h); batch_name=ASAP-0010715-002): 106%; remaining activity at 10 µM (DRAK1(h); batch_name=ASAP-0010715-002): 105%
CC(C)[C@@H](Nc1ncnc2[nH]c(-c3cnn(C)c3C#N)cc12)c1ccc2c(n1)OCCO2 [ASAP-0010716]	3%	3%	156.0 µL/min/mg	4.46 min	4%	remaining activity at 10 µM (ASK1(h); batch_name=ASAP-0010716-002): 108%; remaining activity at 10 µM (DRAK1(h); batch_name=ASAP-0010716-002): 108%
CC(C)C(Nc1ncnc2[nH]c(C(=O)NC3CCN(C)C3)cc12)c1ccc2c(c1)S(=O)(=O)CCC2 (stereo not shown) [ASAP-0011198]	–	–	–	88.3 min	–	inhibition at 10 µM (beta2 (h)): -3%; inhibition at 10 µM (D2S (h)): -7%; remaining activity at 10 µM (ASK1(h); batch_name=ASAP-0011198-002): 105%; remaining activity at 10 µM (DRAK1(h); batch_name=ASAP-0011198-002): 105%; microsomal CLint ([1]; Sprague-Dawley (SD), liver microsomes): 7.85 µL/min/mg; inhibition at 10 µM (5-HT3 (h)): 2%
COc1ccc([C@H](Cc2nnn[nH]2)NC(=O)c2ncnc3[nH]ccc23)cc1 [ASAP-0015381]	-6%	-4%	< 5.0 µL/min/mg	> 139.0 min	6%	remaining activity at 10 µM (ASK1(h); batch_name=ASAP-0015381-001): 103%
COc1ccc([C@@H](Cc2nnn[nH]2)NC(=O)c2ncnc3[nH]ccc23)cc1 [ASAP-0008340]	–	–	–	–	–	remaining activity at 10 µM (ASK1(h); batch_name=ASAP-0008340-001): 101%; remaining activity at 10 µM (DRAK1(h); batch_name=ASAP-0008340-001): 111%
CNCc1cc(-c2cc3c(N[C@@H](c4ccc5c(c4)S(=O)(=O)CCC5)C(C)C)ncnc3[nH]2)co1 [ASAP-0011176]	6%	-9%	21.4 µL/min/mg	32.4 min	0%	remaining activity at 10 µM (DRAK1(h); batch_name=ASAP-0011176-002): 86%
Cn1ncc(-c2cc3c(N[C@@H](c4ccc5c(n4)OCCO5)C(C)(C)C)ncnc3[nH]2)c1C#N [ASAP-0011221]	4%	13%	129.0 µL/min/mg	5.38 min	3%	remaining activity at 10 µM (ASK1(h); batch_name=ASAP-0011221-002): 108%; remaining activity at 10 µM (DRAK1(h); batch_name=ASAP-0011221-002): 108%
C[C@H](C(=O)O)[C@@H](NC(=O)c1ncnc2[nH]ccc12)c1ccc(Br)cc1 [ASAP-0014722]	-8%	-1%	< 5.0 µL/min/mg	> 139.0 min	2%	remaining activity at 10 µM (ASK1(h); batch_name=ASAP-0014722-002): 102%; remaining activity at 10 µM (DRAK1(h); batch_name=ASAP-0014722-002): 98%
